Laboratory results from PubChem BioAssay AID493083 (Broad Institute, 2011).
The source made the active and inactive calls.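 The calls were made as follows: active = compounds lowering signal whose fitted AC50 is at most ten times the top tested dose; inconclusive = flat fit with moderate inhibition, or poor curve fit; inactive = the rest.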

Each molecule was assayed on NIH3T3 R4 HSF-1 GFP reporter, heat shock, 48 h (assay: decrease of heat-induced HSF-1 GFP reporter, dose response, NIH3T3 R4 cells, GFP/RFP, cherry-pick, set 3 (AID 493083)).
Work on `OCCCNc1nccc(-c2cc(Nc3cccc(Cl)c3)ncn2)n1` yielded an AC50 of 18.7 µM. With `NC(=O)C1CCN(CC(=O)Nc2nc(-c3ccccc3)cs2)CC1` the AC50 was > 19.5 µM (inactive). With `S=C1Cc2ccccc2N1` the AC50 was 12.4 µM. `CC(C)(C)c1ccc2c(c1)OC(C(=O)N/N=C\c1ccc[nH]1)CO2` (configuration not stated) showed an AC50 of 0.848 µM. Molecule `CC12CCC(C/C1=N\N=C1\NC(=O)/C(=C\c3ccc(Cl)cc3)S1)C2(C)C` (configuration not stated) has an AC50 of 2.4 µM. With `O=C1C=C(NCCN2CCOCC2)C(=O)c2cnccc21` the AC50 was 5.57 µM. With `Cc1nn(-c2ccccc2)c(N)c1C(O)(CSc1nccn1C)C(F)(F)F` (configuration not stated) the AC50 was > 19.5 µM (inactive). Work on `COc1ccc(C[C@H]2NC[C@H](O)[C@H]2OC(C)=O)cc1` yielded an AC50 of 0.551 µM. For `Cc1c(NC(=O)C2CC(c3ccc(F)cc3)=NO2)c(=O)n(-c2ccccc2)n1C` (configuration not stated), the AC50 was > 19.5 µM (inactive). For `CCc1ccc(S(=O)(=O)/N=C2\C=C(Nc3ccc(O)cc3)C(=O)c3ccccc32)cc1`, the AC50 was 1.74 µM. `O=C(Nc1ccccc1Cl)/C(Cl)=C(\Cl)S(=O)c1ccccc1` (configuration not stated) was tested, and the AC50 was 1.81 µM. For `CC(C)CN=C(NS(=O)(=O)c1ccccc1)C(Cl)(Cl)Cl`, the AC50 was 16.1 µM. Molecule `Cn1c(=O)c([N+](=O)[O-])c(Cl)c2ccccc21` has an AC50 of 16.9 µM. In the case of `CN=c1scc(-c2ccco2)n1/N=C/c1ccc(O)c(O)c1`, the AC50 is reported as 5.23 µM. Work on `O=S(=O)(C/C(=C/CO)S(=O)(=O)c1ccccc1)c1ccccc1` yielded an AC50 of 5.86 µM. `CCN(c1ccccc1)S(=O)(=O)c1cnc[nH]1` was tested, and the AC50 was > 19.5 µM (inactive). In the case of `COc1cccc(-c2nnc3n2N=C(C(C)(C)C)CS3)c1`, the AC50 is reported as > 19.5 µM (inactive). Molecule `COc1ccccc1-c1cc(C(F)(F)F)nc(S(=O)(=O)CCCC(=O)NCc2ccc(F)cc2)n1` has an AC50 of 5.18 µM. Work on `O=C(CCl)Nc1cn(-c2ccccc2)nc1-c1ccc(F)cc1` yielded an AC50 of 4.77 µM. For `Fc1ccc(-n2cc(-c3ccccc3)c3c(N4CCOCC4)ncnc32)cc1`, the AC50 was > 19.5 µM (inactive). With `CCOc1ccc(C(=O)COC(=O)Cc2n[nH]c(=O)c3ccccc23)cc1` the AC50 was > 19.5 µM (inactive). With `Cc1ccc(-n2nc(C)c3cc(C(=O)O)sc32)cc1` the AC50 was > 19.5 µM (inactive). Work on `CC[C@H]1CN2CCc3cc(OC)c(OC)cc3[C@@H]2C[C@@H]1C[C@H]1NCCc2cc(OC)c(OC)cc21` yielded an AC50 of 0.526 µM. `O=S(=O)(c1ccc2c(c1)C(=NO)c1cc(S(=O)(=O)N3CCCCC3)ccc1-2)N1CCCCC1` showed an AC50 of 2.08 µM. Molecule `COc1cc(C2CC(c3cccs3)=NN2C(=O)CCl)ccc1OC(F)F` (configuration not stated) has an AC50 of 14.8 µM. In the case of `CCOC(=O)c1c(C)[nH]c2c1-c1ccccc1C(=O)C2=O`, the AC50 is reported as 1.4 µM. `CC(=O)Cn1ncc(Br)c(Br)c1=O` showed an AC50 of 5.62 µM. For `NNC(=S)NC1CC2CC1C1C=CCC21` (configuration not stated), the AC50 was > 19.5 µM (inactive). `O=C(COC(=O)/C=C/c1ccc(C(F)(F)F)cc1)NC1CC1` was tested, and the AC50 was > 19.5 µM (inactive). In the case of `CCOC(=O)Cc1nnc2c(Nc3ccccc3F)nc3nonc3n12`, the AC50 is reported as 12.4 µM. Work on `Nc1ncnc2c1ccn2[C@@H]1O[C@H](CO)[C@@H](O)[C@H]1O` yielded an AC50 of 10.5 µM. In the case of `CCOC(=O)C1CCN(C(=O)CC(C)c2ccccc2)CC1` (configuration not stated), the AC50 is reported as > 10 µM (inactive). In the case of `COc1ccc2[nH]c(=O)c(CN(Cc3cccs3)S(=O)(=O)c3c(C)ccc4nsnc34)cc2c1`, the AC50 is reported as > 19.5 µM (inactive). For `Cc1cc(C)c2nc(C(F)(F)F)c(C#N)c(N)c2c1`, the AC50 was > 19.5 µM (inactive). `C#CC(=O)N(c1cc(OC)ccc1OC)C(C(=O)NC1CCCC1)c1cccs1` (configuration not stated) showed an AC50 of 5.66 µM. With `C[C@H]1C[C@@H](C)C(=O)[C@@H]([C@H](O)CC2CC(=O)NC(=O)C2)C1` the AC50 was 0.336 µM. In the case of `Cc1ccc(NC2=C/C(=N\S(=O)(=O)c3cccs3)c3ccccc3C2=O)c(C)c1`, the AC50 is reported as 1.32 µM. With `CCCCS(=O)(=O)/C=C\C=C/S(=O)(=O)CCCC` the AC50 was 5.46 µM. With `Cc1cc([N+](=O)[O-])c2ccccc2[n+]1[O-]` the AC50 was 5.71 µM. Molecule `O=C(CCl)N(c1ccccc1)C1CCCCC1` has an AC50 of 5.43 µM. `O=C(CCl)Nc1cc(SCC(O)CO)cc([N+](=O)[O-])c1` (configuration not stated) gave an AC50 of 5.73 µM. `CCOC(=O)/C(=C\c1ccc([N+](=O)[O-])cc1)C(=O)c1cc(C(C)=O)c(Nc2ccccc2)s1` was tested, and the AC50 was 11.7 µM. For `Cc1ccc(S(=O)(=O)c2ncccc2[N+](=O)[O-])cc1`, the AC50 was 5.64 µM. For `Nc1ccc2oc(C3CCCCC3)nc2c1`, the AC50 was > 19.5 µM (inactive). With `Nc1nc(F)nc2c1ncn2[C@@H]1O[C@H](CO)[C@@H](O)[C@H]1O` the AC50 was 1.61 µM. Work on `O=C(CCl)Nc1ccc(-c2ccccc2)cc1` yielded an AC50 of 17.2 µM. In the case of `C=C(C)C(=O)O[C@H]1C/C(C)=C\C(=O)/C=C(\C)[C@H](O)[C@@H]2OC(=O)C(=C)[C@@H]21`, the AC50 is reported as 15.4 µM.
